The values that follow come from patent EP0373645A1, “Imidazolyl and pyridyl derivatives of phenyl substituted 1,4 -dihyropyridines and process for their preparation” (priority 1988, dated 1990).

Data set [1] can be described thus: Orientative acute oral toxicity. Also on record: species or system Mice and rats. Particulars: in vivo; single oral administration, assessed on the seventh day after treatment; read-out: orientative acute toxicity (LD₅₀). The procedure: The toxicity of the compounds of the invention is negligible, so that they can be safely used in therapy. Mice and rats which had been deprived of food for nine hours were treated orally with single administrations of increasing doses of compounds of the invention, then housed and normally fed. For example the orientative acute toxicity (LD₅₀) of the compound FCE 24265, assessed on the seventh day after treatment, was higher than 800 mg/kg.

Data set [2] concerns the target T1, TxA₂ Synthase (Rattus norvegicus, UniProt P49430).
T1 construct: Blood was withdrawn from the abdominal aorta of the animals; from tissue; host or cells: whole blood of reduced renal mass (RRM) rats, allowed to clot 1 h at 37°C
T1 sequence (P49430 1-533): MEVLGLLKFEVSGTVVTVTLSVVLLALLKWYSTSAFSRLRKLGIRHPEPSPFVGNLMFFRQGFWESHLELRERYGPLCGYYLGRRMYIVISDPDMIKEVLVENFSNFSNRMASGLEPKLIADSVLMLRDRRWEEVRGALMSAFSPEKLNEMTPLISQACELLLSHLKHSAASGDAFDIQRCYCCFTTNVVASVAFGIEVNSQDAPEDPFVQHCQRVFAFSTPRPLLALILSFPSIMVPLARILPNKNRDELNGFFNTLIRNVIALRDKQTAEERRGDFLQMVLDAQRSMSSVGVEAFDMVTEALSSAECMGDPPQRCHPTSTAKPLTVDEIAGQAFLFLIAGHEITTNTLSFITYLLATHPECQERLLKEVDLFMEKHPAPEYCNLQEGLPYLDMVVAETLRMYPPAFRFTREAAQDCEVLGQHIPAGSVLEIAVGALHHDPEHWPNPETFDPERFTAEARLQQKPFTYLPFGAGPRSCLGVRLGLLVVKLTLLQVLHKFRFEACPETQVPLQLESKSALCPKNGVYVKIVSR
Nature of the data set: In vitro effect on TxB₂ synthesis in whole blood during clotting (RIA). The following applies: for times more potent than the reference compound ASA (TxA₂ synthesis in whole blood): ratio to ASA; for times more potent than the reference compound Dazoxiben (TxA₂ synthesis in whole blood): ratio to Dazoxiben. The format is cell-based. On the procedure: (§1) Their ability to inhibit TxA₂ Synthase activity (as reflected by TxB₂ generated in whole blood during clotting or in isolated glomeruli) was tested in vitro and ex vivo in the rat.
(§2) The effect of the compounds on TxA₂ synthesis was evaluated in serum and in glomeruli isolated from kidney cortex of reduced renal mass rats (RRM). Ablation of >70% of renal mass in the rat results in hypertension, proteinuria and glomerular sclerosis of the remnant kidney. Rats with a remnant kidney have increased excretion of thromboxane in the urine when compared with normal rats [Purkerson et al.-Proc.Natl.Acad.Sci.USA 82, 193, 1985].
Blood was withdrawn from the abdominal aorta of the animals under light ether anesthesia.
Samples were then allowed to clot for 1 h at 37°C, centrifuged at 3000 rpm for 10 min, serum collected and stored at -20°C until assayed. TxB₂ levels were determined by RIA according to previously described procedures [Patrono et al.-Thromb.Res. 17, 3/4, 317, 1980] using highly specific antibody.

For data set [3], the target named is T1, TxA₂ Synthase. Briefly: In vitro effect on TxB₂ synthesis in isolated glomeruli (RIA). It is filed as cell-based. On the procedure: as §1, §2
The isolation of glomeruli was performed as previously described [Patrignani et al., - J. Pharm. Exp. Ther. 228, 2, 472, 1984]
The isolated glomeruli of 4 rats were pooled, suspended in modified Krebs buffer (pH 7.3) and divided into portions of 1 ml each containing a concentration of the test compounds or of the reference compounds.
The TxA₂ synthesis was induced by incubating the glomeruli under shaking at 37°C for 1 h. At that time the incubation was stopped by centrifugation at +4°C, the supernatant collected and stored at -20°C until assayed by RIA.

The test system of data set [4] is chronically cannulated hypertensive rats (SHR). Nature of the data set: Antihypertensive activity, intra-arterial blood pressure and heart rate. The format is in vivo. On the procedure: The antihypertensive activity of the compounds of the invention was tested in chronically cannulated hypertensive rats (SHR).
For intra-arterial measurements of blood pressure (MBP) catheters (PE50 Clay Adams) were implanted in the right carotid artery under alothane anesthesia. Two days after surgery the animals were placed in a Ballman cage and the arterial catheter was connected to a stathman P23 Db pressure transducer and a Beckman multichannel R611 BP recorder for continuous monitoring of MBP and heart rate (HR).
Measurements were made predrug and 0.5, 1, 2, 4, 6 h after drug or vehicle (methocel 0.5% w/v).

For data set [5], the target named is T1, TxA₂ Synthase. Briefly: Ex vivo inhibition of TxA₂ synthesis in serum after oral administration. Particulars: 1 h, p.o., blood taken one hour after treatment, read-out: ED₅₀ inhibition of the synthesis of TxA₂ (ex vivo). The procedure: as §1
The ex vivo experiments were performed as follows.
The compounds were orally administered to RRM rats by gavage at the dose of 2.5 mg/kg in 0.5% methocel. One hour after treatment rats were anaesthetised with ether, blood was withdrawn from the abdominal aorta and allowed to clot for 1 h at 37°C. Samples were then centrifuged, serum collected and stored at -20°C until assayed.

Setting [6] is: RRM rats whole blood, clotting 1 h at 37°C, read-out: In vitro effect on TxB₂ synthesis in RRM rats whole blood, IC₅₀.

As for `CCOC(=O)C1=C(C)NC(C)=C(C(=O)OCC)C1c1cccc(-n2ccnc2)c1` [FCE 24265, 1,4-dihydro-2,6-dimethyl-4-[3-(1H-imidazol-1-yl)phenyl]-3,5-pyridinedicarboxylic acid, diethyl ester], the LD50 at 168 h in data set [1] was over 800 mg/kg. Further, the IC50 on TxA₂ Synthase [2] (setting [6]) worked out at 170 nM; on TxA₂ Synthase [3] (RRM rats isolated glomeruli, incubation 1 h at 37°C, read-out: In vitro effect on TxB₂ synthesis in RRM rats glomeruli, IC₅₀) it was 0.036 µM. For the same compound, on TxA₂ Synthase [2], the “times more potent than the reference compound ASA (TxA₂ synthesis in whole blood)” value worked out at 247 times. In addition, the “times more potent than the reference compound Dazoxiben (TxA₂ synthesis in whole blood)” value at TxA₂ Synthase [2] came to 7 times. In addition, the “times more potent than ASA on glomerular TxB₂ synthesis” value on TxA₂ Synthase [3] (glomeruli, ratio to ASA) is on record as ~4,000 times. Further, the “times more potent than Dazoxiben on glomerular TxB₂ synthesis” value at TxA₂ Synthase [3] (glomeruli, ratio to Dazoxiben) is given as 4.7 times. Besides, in data set [4], the “changes in heart rate” value is “No changes”. Moreover, the “time until blood pressure returned toward normal levels” value in data set [4] (after treatment) turned out to be 3 h. For the same compound, in data set [4] (peak reached at 30 minutes postdrug), the “peak effect on blood pressure (MBP)” value is -30 ± 4 mm Hg. Besides, on TxA₂ Synthase [5], the ED50 came to 2.3 mg/kg.

For `CCOC(=O)C1=C(C)NC(C)=C(C(=O)OCC)C1c1cccc(-c2cccnc2)c1` [FCE 26055, 1,4-dihydro-2,6-dimethyl-4-[3-(3-pyridyl)phenyl]-3,5-pyridinedicarboxylic acid, diethyl ester], the IC50 on TxA₂ Synthase [2] (setting [6]) came out at 450 nM. In addition, at TxA₂ Synthase [2], the “times more potent than the reference compound ASA (TxA₂ synthesis in whole blood)” value stood at 90 times and the “times more potent than the reference compound Dazoxiben (TxA₂ synthesis in whole blood)” value is 3 times.

As for `CC(=O)Oc1ccccc1C(=O)O` [ASA, Acetylsalicylic acid, reference compound], the figures for the IC50 on TxA₂ Synthase [2] and at TxA₂ Synthase [3] were 42000 nM and 140 µM, respectively.
